# Test results as given in the supplement of paper PMC11281043.
# ± gives the standard deviation of the averaged measurements.
# Tests used:
# Conditions in all cases: exposure: 6-8 hpf to 5 dpf, scored at 6 dpf
# Danio rerio embryo/larva [1] = experiment: max % larvae with any abnormality across tested concentrations; max tested concentration (log10 uM): 2; higher = more toxic; extreme values may be limits of the assay
# Danio rerio embryo/larva [2] = experiment: max % larvae dead across tested concentrations; max tested concentration (log10 uM): 2; higher = more toxic; extreme values may be limits of the assay
# Danio rerio embryo/larva [3] = experiment: max % larvae unhatched across tested concentrations; max tested concentration (log10 uM): 2; higher = more toxic
# Danio rerio embryo/larva [4] = experiment: max % larvae with craniofacial defects across tested concentrations; higher = more toxic; extreme values may be limits of the assay
# Danio rerio embryo/larva [5] = experiment: max % larvae with edema across tested concentrations; higher = more toxic; extreme values may be limits of the assay
# Danio rerio embryo/larva [6] = experiment: max % larvae with uninflated swim bladder across tested concentrations; higher = more toxic; extreme values may be limits of the assay
# Danio rerio embryo/larva [7] = experiment: max % larvae with tail defects across tested concentrations; higher = more toxic; extreme values may be limits of the assay
# Danio rerio embryo/larva [8] = experiment: max % larvae with pigmentation defects across tested concentrations; higher = more toxic
# Danio rerio embryo/larva [9] = experiment: max % larvae with spinal defects across tested concentrations; higher = more toxic; extreme values may be limits of the assay
# Danio rerio embryo/larva [10] = experiment: max % larvae with abnormal position across tested concentrations; higher = more toxic; extreme values may be limits of the assay
# Danio rerio embryo/larva [11] = experiment: max % larvae generally abnormal across tested concentrations; higher = more toxic; extreme values may be limits of the assay
# Danio rerio embryo/larva [12] = experiment: max % larvae with blood pooling across tested concentrations; higher = more toxic; extreme values may be limits of the assay
SMILES,max % larvae (Danio rerio embryo/larva [1]),max % larvae dead across tested concentrations (Danio rerio embryo/larva [2]),max % larvae unhatched across tested concentrations (Danio rerio embryo/larva [3]),max % larvae (Danio rerio embryo/larva [4]),max % larvae (Danio rerio embryo/larva [5]),max % larvae (Danio rerio embryo/larva [6]),max % larvae (Danio rerio embryo/larva [7]),max % larvae (Danio rerio embryo/larva [8]),max % larvae (Danio rerio embryo/larva [9]),max % larvae (Danio rerio embryo/larva [10]),max % larvae generally abnormal across tested concentrations (Danio rerio embryo/larva [11]),max % larvae (Danio rerio embryo/larva [12])
O=S(=O)(O)CCC(F)(F)C(F)(F)C(F)(F)C(F)(F)C(F)(F)C(F)(F)F [6:2 Fluorotelomer sulfonic acid],16.7%,16.7%,0%,,,,,,,,,
NC(=O)C(F)(F)C(F)(F)C(F)(F)C(F)(F)C(F)(F)C(F)(F)C(F)(F)F [Perfluorooctanamide],0%,0%,0%,,,,,,,,,
"FC(F)(F)C(F)(F)C(F)(F)C(F)(F)CCI [1H,1H,2H,2H-Perfluorohexyl iodide]",8.33%,0%,0%,,,,,,,,,
O=C(O)C(F)(F)C(F)(F)C(F)(F)C(F)(F)C(F)(F)C(F)(F)C(F)(F)F [Potassium perfluorooctanoate],16.7%,16.7%,0%,,,,,,,,,
O=C(O)C(F)(F)C(F)(F)OC(F)(F)F [Perfluoro-3-methoxypropanoic acid],16.7%,0%,0%,,,,,,,,,
"O=C(O)C=C(C(F)(F)F)C(F)(F)F [3,3-Bis(trifluoromethyl)-2-propenoic acid]",2.08%,0%,0%,,,,,,,,,
O=P(O)(O)OCCC(F)(F)C(F)(F)C(F)(F)C(F)(F)C(F)(F)C(F)(F)F [6:2 Fluorotelomer phosphate monoester],0%,0%,0%,,,,,,,,,
FC(F)(F)COC(OCC(F)(F)F)OCC(F)(F)F [tris(Trifluoroethoxy)methane],0%,0%,0%,,,,,,,,,
O=C(O)C(F)(F)C(F)(F)F [Perfluoropropanoic acid],0%,0%,0%,,,,,,,,,
O=S(=O)(O)CCC(F)(F)C(F)(F)C(F)(F)C(F)(F)F [4:2 Fluorotelomer sulfonic acid],0%,0%,0%,,,,,,,,,
C=C(C)C(=O)OCCC(F)(F)C(F)(F)C(F)(F)C(F)(F)C(F)(F)C(F)(F)F [2-(Perfluorohexyl)ethyl methacrylate],0%,0%,0%,,,,,,,,,
O=C(O)C(F)(F)C(F)(F)C(F)(F)C(F)(F)C(=O)O [Perfluorohexanedioic acid],0%,0%,0%,,,,,,,,,
"NCC(F)(F)C(F)(F)C(F)(F)C(F)(F)C(F)(F)C(F)(F)C(F)(F)F [1H,1H-Perfluorooctylamine]",33.3 ± 47%,8.33 ± 12%,0%,,,,,,,,,
O=S(=O)(O)C(F)(F)C(F)(F)C(F)(F)C(F)(F)F [Perfluorobutanesulfonic acid],0%,0%,0%,,,,,,,,,
"FC(F)(Br)C(F)(F)C(F)(F)C(F)(F)C(F)(F)C(F)(F)Br [1,6-Dibromododecafluorohexane]",4.17%,0%,0%,,,,,,,,,
OCCC(F)(F)C(F)(F)C(F)(F)C(F)(F)F [4:2 Fluorotelomer alcohol],4.17%,0%,0%,,,,,,,,,
O=C(O)C(F)(F)C(F)(F)C(F)(F)C(F)(F)C(F)(F)C(F)(F)C(F)(F)F [Sodium perfluorooctanoate],0%,0%,0%,,,,,,,,,
NC(=O)C(F)(F)C(F)(F)C(F)(F)F [Heptafluorobutyramide],25%,16.7%,0%,,,,,,,,,

SMILES,max % larvae (Danio rerio embryo/larva [1]),max % larvae dead across tested concentrations (Danio rerio embryo/larva [2]),max % larvae unhatched across tested concentrations (Danio rerio embryo/larva [3]),max % larvae (Danio rerio embryo/larva [4]),max % larvae (Danio rerio embryo/larva [5]),max % larvae (Danio rerio embryo/larva [6]),max % larvae (Danio rerio embryo/larva [7]),max % larvae (Danio rerio embryo/larva [8]),max % larvae (Danio rerio embryo/larva [9]),max % larvae (Danio rerio embryo/larva [10]),max % larvae generally abnormal across tested concentrations (Danio rerio embryo/larva [11]),max % larvae (Danio rerio embryo/larva [12])
OCCCC(F)(F)C(F)(F)C(F)(F)C(F)(F)C(F)(F)C(F)(F)C(F)(F)C(F)(F)F [3-(Perfluorooctyl)propanol],0%,0%,0%,,,,,,,,,
"O=C(O)C(F)(F)OC(F)(F)C(F)(F)OC(F)(F)C(F)(F)C(F)(F)C(F)(F)F [Perfluoro-3,6-dioxadecanoic acid] (max tested concentration (log10 uM): 2)",,,,75%,56.2%,62.5%,6.25%,0%,0%,31.2%,68.8%,50%
"C=CC(=O)OCC(F)(F)C(F)(F)C(F)(F)C(F)(F)C(F)(F)C(F)(F)C(F)(F)F [1H,1H-Perfluorooctyl acrylate] (max tested concentration (log10 uM): 2)",,,,0%,0%,0%,0%,0%,0%,0%,0%,0%
OCCCC(F)(F)C(F)(F)C(F)(F)C(F)(F)C(F)(F)C(F)(F)C(F)(F)C(F)(F)F [3-(Perfluorooctyl)propanol] (max tested concentration (log10 uM): 2),,,,0%,0%,0%,0%,0%,0%,0%,0%,0%
O=C(O)C(F)(F)C(F)(F)C(F)F [4H-Perfluorobutanoic acid] (max tested concentration (log10 uM): 2),,,,0%,0%,0%,0%,0%,0%,0%,0%,0%
O=C(O)C(F)(F)C(F)(F)C(F)(F)OC(F)(F)F [Perfluoro(4-methoxybutanoic acid)] (max tested concentration (log10 uM): 2),,,,0%,0%,0%,0%,0%,0%,0%,0%,0%
O=C(O)C(F)(F)C(F)(F)C(F)(F)C(F)(F)C(=O)O [Perfluorohexanedioic acid] (max tested concentration (log10 uM): 2),,,,0%,0%,0%,0%,0%,0%,0%,0%,0%
OCC(F)(F)C(F)(F)C(F)(F)C(F)(F)C(F)(F)C(F)(F)C(F)(F)C(F)(F)C(F)(F)C(F)(F)C(F)(F)F [11:1 Fluorotelomer alcohol] (max tested concentration (log10 uM): 1.30103),,,,0%,0%,0%,0%,0%,0%,0%,0%,0%
CCCCCCCCC(F)(F)C(F)(F)C(F)(F)C(F)(F)C(F)(F)C(F)(F)F [1-(Perfluorohexyl)octane] (max tested concentration (log10 uM): 1.60206),,,,0%,0%,0%,0%,0%,0%,0%,0%,0%
O=C(O)C(F)(F)C(F)(F)C(F)(F)C(F)(F)C(F)(F)C(F)(F)C(F)(F)C(F)(F)C(F)(F)C(F)(F)C(F)(F)C(F)(F)F [Perfluorotridecanoic acid] (max tested concentration (log10 uM): 1.30103),,,,16.7%,16.7%,16.7%,0%,0%,0%,8.33%,16.7%,16.7%
NC(=O)C(F)(F)C(F)(F)C(F)(F)C(F)(F)F [Nonafluoropentanamide] (max tested concentration (log10 uM): 2),,,,0%,0%,0%,0%,0%,0%,0%,0%,0%
CN(C(=O)C(F)(F)C(F)(F)C(F)(F)F)[Si](C)(C)C [N-Methyl-N-trimethylsilylheptafluorobutyramide] (max tested concentration (log10 uM): 2),,,,0%,0%,0%,0%,0%,0%,0%,0%,0%
O=C(Cl)C(F)(F)C(F)(F)C(F)(F)C(=O)Cl [Hexafluoroglutaryl chloride] (max tested concentration (log10 uM): 2),,,,0%,0%,0%,0%,0%,0%,0%,0%,0%
O=C(O)C(F)(F)C(F)(F)C(F)(F)C(F)(F)C(F)(F)F [Perfluorohexanoic acid] (max tested concentration (log10 uM): 2),,,,0%,0%,0%,0%,0%,0%,0%,0%,0%
"C=CC(=O)OCC(F)(F)C(F)(F)C(F)(F)COC(=O)C=C [1H,1H,5H,5H-Perfluoro-1,5-pentanediol diacrylate] (max tested concentration (log10 uM): 1)",,,,33.3%,33.3%,16.7%,25%,0%,8.33%,0%,33.3%,0%
O=C(O)C(F)(F)C(F)(F)C(F)(F)F [Perfluorobutanoic acid] (max tested concentration (log10 uM): 2),,,,20%,20%,20%,0%,0%,0%,0%,20%,0%
O=C(O)C(F)(F)C(F)(F)C(F)(F)C(F)(F)C(F)(F)C(F)(F)C(F)(F)C(F)F [9H-Perfluorononanoic acid] (max tested concentration (log10 uM): 2),,,,0%,10.4%,16.7%,0%,0%,0%,2.08%,10.4%,0%
